In patent publication US20060293307A1, “Oxazolidinone derivatives as antimicrobials” (priority 2002, published 2006):
Converted amounts (≈) assume the structure as drawn. Like-named read-outs stand apart in the source and are kept apart here.

Tests used:
[1] = test system: H. influenzae 1381; experiment: MIC against Haemophilus strains; type: cell-based; details: s. No. 7, H. influenzae 1381
[2] = test system: H. influenzae 35056; experiment: MIC against Haemophilus strains; type: cell-based; details: s. No. 1, H. influenzae 35056
[3] = test system: H. influenzae 1745; experiment: MIC against Haemophilus strains; type: cell-based; details: s. No. 9, H. influenzae 1745
[4] = test system: H. influenzae βIac; experiment: MIC against Haemophilus strains; type: cell-based; details: s. No. 3, H. influenzae βIac
[5] = test system: H. influenzae P318; experiment: MIC against Haemophilus strains; type: cell-based; details: s. No. 10, H. influenzae P318
[6] = test system: H. influenzae 474; experiment: MIC against Haemophilus strains; type: cell-based; details: s. No. 11, H. influenzae 474
[7] = test system: H. influenzae R; experiment: MIC against Haemophilus strains; type: cell-based; details: s. No. 4, H. influenzae R
[8] = test system: H. influenzae 49766; experiment: MIC against Haemophilus strains; type: cell-based; details: s. No. 6, H. influenzae 49766
[9] = test system: H. influenzae 23; experiment: MIC against Haemophilus strains; type: cell-based; details: s. No. 5, H. influenzae 23
[10] = test system: H. influenzae 451; experiment: MIC against Haemophilus strains; type: cell-based; details: s. No. 8, H. influenzae 451
[11] = test system: H. influenzae ATCC 49247; experiment: MIC against Haemophilus strains; type: cell-based; details: s. No. 2, H. influenzae ATCC 49247
[12] = Haemophilus influenzae, read-out: MIC

Compound	MIC [1] [mg/L]	MIC [2] [mg/L]	MIC [3] [mg/L]	MIC [4] [mg/L]	MIC [5] [mg/L]	MIC [6] [mg/L]	MIC [7] [mg/L]	MIC [8] [mg/L]	MIC [9] [mg/L]	MIC [10] [mg/L]	MIC [11] [mg/L]	further results
O=C(CF)NC[C@H]1CN(c2ccc(N3CCN(c4ccc([N+](=O)[O-])s4)CC3)c(F)c2)C(=O)O1												melting point: 145 to 150 °C
CO/N=C(\C(=O)N[C@@H]1C(=O)N2C(C(=O)O)=C(CSc3nc(=O)c(O)nn3C)CS[C@H]12)c1csc(N)n1 [Ceftriaxone, reference compound]	0.008 (≈ 0.0144 µM)	0.06 (≈ 0.108 µM)	0.004 (≈ 0.00721 µM)	<0.002	0.015 (≈ 0.027 µM)	0.004 (≈ 0.00721 µM)	0.004 (≈ 0.00721 µM)	0.008 (≈ 0.0144 µM)	0.004 (≈ 0.00721 µM)	0.008 (≈ 0.0144 µM)	0.125 (≈ 0.225 µM)	
C[C@H]1COc2c(N3CCN(C)CC3)c(F)cc3c(=O)c(C(=O)O)cn1c23 [LevoFloxaci, reference compound]	0.015 (≈ 0.0415 µM)	0.015 (≈ 0.0415 µM)	0.03 (≈ 0.083 µM)	0.008 (≈ 0.0221 µM)	0.03 (≈ 0.083 µM)	0.015 (≈ 0.0415 µM)	0.015 (≈ 0.0415 µM)	0.03 (≈ 0.083 µM)	0.015 (≈ 0.0415 µM)	0.015 (≈ 0.0415 µM)	0.015 (≈ 0.0415 µM)	
CC[C@H]1OC(=O)[C@H](C)C(=O)[C@H](C)[C@@H](O[C@@H]2O[C@H](C)C[C@H](N(C)C)[C@H]2O)[C@](C)(OC)C[C@@H](C)C(=O)[C@H](C)[C@H]2N(CCCCn3cnc(-c4cccnc4)c3)C(=O)O[C@]12C [Telithromycin, reference compound]												MIC [1, 12]: 2 mg/L (≈ 2.46 µM); MIC [2, 12]: 2 mg/L (≈ 2.46 µM); MIC [3, 12]: 1 mg/L (≈ 1.23 µM); MIC [4, 12]: 2 mg/L (≈ 2.46 µM); MIC [5, 12]: 1 mg/L (≈ 1.23 µM); MIC [6, 12]: 2 mg/L (≈ 2.46 µM); MIC [7, 12]: 2 mg/L (≈ 2.46 µM); MIC [8, 12]: 2 mg/L (≈ 2.46 µM); MIC [9, 12]: 2 mg/L (≈ 2.46 µM); MIC [10, 12]: 2 mg/L (≈ 2.46 µM); MIC ([11]; Haemophilus influenzae, ATCC49247, read-out: MIC): 2 mg/L (≈ 2.46 µM)
